Source: ChEMBL document CHEMBL1201862, “PubChem BioAssay data set” (2004)
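Each compound was tested at five concentrations against cells in 96-well plates for 48 hours. At the GI50, growth is halved.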 Activity calls are given as the source filed them. Cut-off read from the data, not from the text of the source: active = GI50 up to about 1.1 µM and inactive = higher.

Legend:
Assay in all cases: NCI tumour cell line growth inhibition, 48 h
HCT-116 = system: HCT-116
MOLT-4 = system: MOLT-4
MDA-MB-435 = system: MDA-MB-435
SW-620 = system: SW-620
KM12 = system: KM12
HCC 2998 = system: HCC 2998
SNB-78 = system: SNB-78
SF-268 = system: SF-268
SR = system: SR
NCI-H522 = system: NCI-H522
HT-29 = system: HT-29
XF498 = system: XF498
RXF 631 = system: RXF 631
M19-MEL = system: M19-MEL
KM-20L2 = system: KM-20L2
MCF7 = system: MCF7
SNB-75 = system: SNB-75
HOP-62 = system: HOP-62
IGROV-1 = system: IGROV-1
K562 = system: K562
U-251 = system: U-251
HOP-18 = system: HOP-18
HL-60 = system: HL-60
SNB-19 = system: SNB-19
MDA-MB-231 = system: MDA-MB-231
SK-MEL-28 = system: SK-MEL-28
UO-31 = system: UO-31
RXF 393 = system: RXF 393
786-0 = system: 786-0
SF-539 = system: SF-539
COLO 205 = system: COLO 205
LXFL 529 = system: LXFL 529
DMS-273 = system: DMS-273
T47D = system: T47D
NCI-H226 = system: NCI-H226
BT-549 = system: BT-549
SK-MEL-2 = system: SK-MEL-2
SN12C = system: SN12C
NCI-H23 = system: NCI-H23
PC-3 = system: PC-3
OVCAR-8 = system: OVCAR-8
CAKI-1 = system: CAKI-1
Malme-3M = system: Malme-3M
M14 = system: M14
SK-MEL-5 = system: SK-MEL-5
MDA-N = system: MDA-N
HCT-15 = system: HCT-15
TK-10 = system: TK-10
EKVX = system: EKVX
CCRF-CEM = system: CCRF-CEM
OVCAR-4 = system: OVCAR-4
OVCAR-3 = system: OVCAR-3
LOX IMVI = system: LOX IMVI
RPMI-8226 = system: RPMI-8226
NCI-H460 = system: NCI-H460
UACC-62 = system: UACC-62
SF-295 = system: SF-295
DU-145 = system: DU-145
OVCAR-5 = system: OVCAR-5
DLD-1 = system: DLD-1
Hs-578T = system: Hs-578T
A549 = system: A549
HOP-92 = system: HOP-92
ACHN = system: ACHN
A498 = system: A498
UACC-257 = system: UACC-257
SK-OV-3 = system: SK-OV-3
DMS-114 = system: DMS-114

`CC(=O)Oc1cccc2c1C(=O)C(Br)(Br)CCC2` was tested. Which GI50 (HCT-116) did it give?
The GI50 was 3.26 µM (inactive).

And the GI50 (MOLT-4)?
The GI50 was 1.11 µM (active).

What about the GI50 (MDA-MB-435) of the same compound?
The GI50 was 3.56 µM (inactive).

And the GI50 (SW-620)?
The GI50 was 2.81 µM (inactive).

What about the GI50 (KM12) of the same compound?
Its GI50 is 8.49 µM (inactive).

What about the GI50 (HCC 2998) of the same compound?
The GI50 was 15.3 µM (inactive).

What about the GI50 (SNB-78) of the same compound?
The GI50 was 17.3 µM (inactive).

And the GI50 (SF-268)?
Its GI50 is 8.34 µM (inactive).

What about the GI50 (SR) of the same compound?
Its GI50 is 1.77 µM (inactive).

What about the GI50 (NCI-H522) of the same compound?
The GI50 was 1.87 µM (inactive).

What about the GI50 (HT-29) of the same compound?
Its GI50 is 5.55 µM (inactive).

What about the GI50 (XF498) of the same compound?
Its GI50 is 11.2 µM (inactive).

And the GI50 (RXF 631)?
The GI50 was 17.4 µM (inactive).

And the GI50 (M19-MEL)?
Its GI50 is 7.28 µM (inactive).

And the GI50 (KM-20L2)?
The GI50 was 8.05 µM (inactive).

And the GI50 (MCF7)?
The GI50 was 2.29 µM (inactive).

What about the GI50 (SNB-75) of the same compound?
Its GI50 is 6.1 µM (inactive).

What about the GI50 (HOP-62) of the same compound?
Its GI50 is 14.4 µM (inactive).

And the GI50 (IGROV-1)?
The GI50 was 13.5 µM (inactive).

What about the GI50 (K562) of the same compound?
Its GI50 is 3.3 µM (inactive).

And the GI50 (U-251)?
Its GI50 is 9.62 µM (inactive).

And the GI50 (HOP-18)?
Its GI50 is 18.2 µM (inactive).

And the GI50 (HL-60)?
The GI50 was 2.38 µM (inactive).

What about the GI50 (SNB-19) of the same compound?
Its GI50 is 11.1 µM (inactive).

And the GI50 (MDA-MB-231)?
Its GI50 is 2.38 µM (inactive).

And the GI50 (SK-MEL-28)?
The GI50 was 10.5 µM (inactive).

What about the GI50 (UO-31) of the same compound?
The GI50 was 9.46 µM (inactive).

And the GI50 (RXF 393)?
Its GI50 is 6.24 µM (inactive).

What about the GI50 (786-0) of the same compound?
Its GI50 is 5.32 µM (inactive).

What about the GI50 (SF-539) of the same compound?
The GI50 was 9.31 µM (inactive).

What about the GI50 (COLO 205) of the same compound?
The GI50 was 6.52 µM (inactive).

What about the GI50 (LXFL 529) of the same compound?
Its GI50 is 6.55 µM (inactive).

What about the GI50 (DMS-273) of the same compound?
Its GI50 is 3.75 µM (inactive).

What about the GI50 (T47D) of the same compound?
The GI50 was 2.53 µM (inactive).

What about the GI50 (NCI-H226) of the same compound?
The GI50 was 6.68 µM (inactive).

What about the GI50 (BT-549) of the same compound?
Its GI50 is 2.14 µM (inactive).

And the GI50 (SK-MEL-2)?
The GI50 was 9.23 µM (inactive).

What about the GI50 (SN12C) of the same compound?
The GI50 was 5.86 µM (inactive).

What about the GI50 (NCI-H23) of the same compound?
Its GI50 is 4.29 µM (inactive).

And the GI50 (PC-3)?
Its GI50 is 3.96 µM (inactive).

What about the GI50 (OVCAR-8) of the same compound?
Its GI50 is 4.38 µM (inactive).

And the GI50 (CAKI-1)?
Its GI50 is 6.62 µM (inactive).

What about the GI50 (Malme-3M) of the same compound?
Its GI50 is 4.07 µM (inactive).

What about the GI50 (M14) of the same compound?
The GI50 was 2.51 µM (inactive).

And the GI50 (SK-MEL-5)?
Its GI50 is 4.41 µM (inactive).

And the GI50 (MDA-N)?
Its GI50 is 2.89 µM (inactive).

And the GI50 (HCT-15)?
The GI50 was 5.12 µM.

And the GI50 (TK-10)?
The GI50 was 16.9 µM (inactive).

And the GI50 (EKVX)?
Its GI50 is 11 µM (inactive).

What about the GI50 (CCRF-CEM) of the same compound?
Its GI50 is 1.34 µM (inactive).

And the GI50 (OVCAR-4)?
The GI50 was 1.83 µM (inactive).

And the GI50 (OVCAR-3)?
Its GI50 is 6.97 µM (inactive).

What about the GI50 (LOX IMVI) of the same compound?
Its GI50 is 2.17 µM (inactive).

And the GI50 (RPMI-8226)?
Its GI50 is 2.22 µM (inactive).

And the GI50 (NCI-H460)?
Its GI50 is 17.3 µM (inactive).

What about the GI50 (UACC-62) of the same compound?
Its GI50 is 7.76 µM (inactive).

And the GI50 (SF-295)?
The GI50 was 17.5 µM (inactive).

What about the GI50 (DU-145) of the same compound?
Its GI50 is 13.7 µM (inactive).

And the GI50 (OVCAR-5)?
Its GI50 is 7.6 µM (inactive).

What about the GI50 (DLD-1) of the same compound?
Its GI50 is 10.1 µM (inactive).

And the GI50 (Hs-578T)?
Its GI50 is 7.38 µM (inactive).

What about the GI50 (A549) of the same compound?
The GI50 was 17.7 µM (inactive).

And the GI50 (HOP-92)?
Its GI50 is 2.93 µM (inactive).

What about the GI50 (ACHN) of the same compound?
Its GI50 is 6.38 µM (inactive).

And the GI50 (A498)?
The GI50 was 19 µM (inactive).

And the GI50 (UACC-257)?
The GI50 was 10.9 µM (inactive).

And the GI50 (SK-OV-3)?
The GI50 was 10.1 µM (inactive).

What about the GI50 (DMS-114) of the same compound?
Its GI50 is 2.54 µM (inactive).
